From EP4796129A1, “ANTI-NECTIN-4 ANTIBODY-DRUG CONJUGATE COMPRISING CAMPTOTHECIN DERIVATIVE” (Celltrion, Inc., priority 2023, dated 2025)

Columns and labels:
[1] = system: SUM190PT (a breast cancer cell line); experiment: In-vitro cell viability assay (CellTiter-Glo); format: cell-based
[2] = system: PC-3 (a prostate cancer cell line); experiment: In-vitro cell viability assay (CellTiter-Glo); format: cell-based
[3] = system: T47D (a breast cancer cell line); experiment: cells; conditions: Homo sapiens
Procedure: Specifically, the cell lines described in Table 5 were seeded per well in a 96-well plate and incubated at room temperature (37°C, 5% CO2). After 24 hours, the cells were treated with 100 µL of payload compounds or ADC drugs at 9 concentrations (a 4-fold serial dilution starting from 1,000 nM). In particular, a control group (drug concentration 0), which is an untreated group, was also prepared. After 6 days of incubation (37°C, 5% CO2), 100 µL of CellTiter-Glo reagent (CellTiter-Glo® Luminescent Cell Viability Assay kit (Promega, G7571)) was added to each well and pipetted. Fluorescence was measured after incubation at room temperature (RT) for 10 minutes.

T47D human breast cancer = experiment: Xenograft model of T47D human breast cancer (xxT47D) in BALB/c nude mice; format: in vivo, female BALB/c nude mice; conditions: 50 mg/kg p.o. QD x 4 weeks
[4] = system: bladder cancer xenograft model (BL9200); experiment: HuPrime bladder cancer xenograft model (BL9200) in NOD/SCID mice; format: in vivo, NOD/SCID strain female mice; conditions: for Tumor Volume (mean ± SEM), Day 25: number of mice in brackets

## CC[C@@]1(O)C(=O)OCc2c1cc1n(c2=O)Cc2c-1nc1cc(F)c(C)c3c1c2[C@@H](N)CC3 [Exatecan, reference compound]
[1]
  IC50: 2.3 nM
[2]
  IC50: 0.62 nM

## CC[C@@]1(O)C(=O)OCc2c1cc1n(c2=O)Cc2c-1nc1cc3c(c4c1c2[C@@H](NC(=O)[C@@H](C)O)CC4)OCO3 [PBX-7016]
[3]
  IC50: 0.47 nM
[1]
  IC50: 9.4 nM
[2]
  IC50: 3.51 nM

## CC(=O)c1c(C)c2cnc(Nc3ccc(N4CCNCC4)cn3)nc2n(C2CCCC2)c1=O [Palbociclib]
T47D human breast cancer
  Tumor Weight (g) on Day 28, mean ± SEM: 0.396 ± 0.047 g
T47D human breast cancer; day 3
  Tumor Volume (mm^3), mean ± SEM: 249 ± 17 mm^3
T47D human breast cancer; day 7
  Tumor Volume (mm^3), mean ± SEM: 290 ± 22 mm^3
T47D human breast cancer; day 10
  Tumor Volume (mm^3), mean ± SEM: 328 ± 23 mm^3
T47D human breast cancer; day 14
  Tumor Volume (mm^3), mean ± SEM: 342 ± 26 mm^3
T47D human breast cancer; day 17
  Tumor Volume (mm^3), mean ± SEM: 344 ± 29 mm^3
T47D human breast cancer; day 21
  Tumor Volume (mm^3), mean ± SEM: 360 ± 36 mm^3
T47D human breast cancer; day 24
  Tumor Volume (mm^3), mean ± SEM: 384 ± 42 mm^3
T47D human breast cancer; day 28
  T/Cweight (%): 41.79%
  TGI (%): 70.93%
  Tumor Volume (mm^3), mean ± SEM: 407 ± 49 mm^3
T47D human breast cancer; tumor volume day 28 vs control G1
  T/C (%): 43.63%

## PADCEV: ADC in which anti-Nectin4 mAb and MMAE are linked by an mc-vc-PAB linker [reference compound]
[4]; 5 mg/kg i.v. QW × 3wks
  TGI (%), Day 25: 108.4%
  ΔT/ΔC (%), Day 25: -8.4%
  Tumor Volume (mean ± SEM), Day 25: 27.26 +/- 2.75(10) mm^3
[4]; 10 mg/kg i.v. QW × 3wks
  TGI (%), Day 25: 109.4%
  ΔT/ΔC (%), Day 25: -9.4%
  Tumor Volume (mean ± SEM), Day 25: 11.07 +/- 3.12(10) mm^3
